Test system: endopeptidase activity in cotton leaves
Assay: Radial Diffusion Assay (RDA) of endopeptidase activity in cotton plants
Format: in vivo, cotton (cv. Sicala V2i)
Conditions: for Endopeptidase activity, cv. V2i Bt PBO: U = trypsin equivalents
Description: The […] of the clear zone produced by the plant extracts was compared to a standard curve obtained by a serial dilution of trypsin. A standard solution of trypsin was used to plot a standard curve for each sample plate, thus the endopeptidase activity was expressed as units of trypsin equivalents. For each extract, the amount of soluble proteins in mg was determined by the Biuret method and the enzymatic activity was then expressed as specific activity i.e. Units/mg soluble proteins. Abscissa: time (days); ordinate: trypsin units/mg soluble protein.
The samples were collected at different development stages of plants, which were: […], 60 and 85 days after sowing. These samples were also analysed for determining the Bt content (as described in example 4). To this aim, the enzymatic activity was tested on crude freeze dried leaf extracts with two different assays: the Radial Diffusion Assay (RDA), in which a protein, such as the bovine gelatine, was used as a substrate to test the endopeptidase activity, and a photometric assay described in the next example, in which DL-BAPA was used as a substrate, to determine a general peptidase activity.
A powder aliquot, which represents each step of plant growth, of the treated and controls samples was extracted in two steps. The powder sample was extracted with buffer 0.1 M Tris-HCl pH 7.7 (1:20 w/v) using an Ultraturrax blender at 24,000×RPM for 2 min in a ice bath to avoid overheating. […] The clear supernatant was collected and filtrated with Whatman paper no 4. The pellet was further extracted with the same procedure, with the exception that in this case the extraction ratio was 1:10 (w/v). Finally, the supernatants of the two extractions processes were joined and then concentrated 4-5 times by centrifugation at 3,000×g at 15° C. for 2 hours, using suitable concentrators (Amicon Inc. Beverly, Mass.—USA), fitted with a membrane of 10 κD cut off.
For each extract, the amount of soluble proteins was determined by the Biuret method and the enzymatic activity was then expressed as specific activity i.e. Units/mg soluble proteins.
RDA was performed as described in Santarius, K. and Ryan, C., Anal. Biochem., 1977, 77: 1-9 in Petri dishes containing bovine gelatine as substrate, dispersed in agar gel. Each dish contained 5 wells of which 4 were filled with suitable aliquots of concentrated cotton extracts, whereas one was filled with a bovine β-trypsin as standard solution (0.2 U/ml). The dishes were covered and sealed with a plastic film to avoid evaporation and then incubated at 37° C. for 16 hours.
The enzymatic activity in the protein-agar gel produced a clear radial diffusion zone around each circular wells, due to the bovine gelatine proteolysis against an opaque background.
The trypsin equivalents were calculated by measuring the radii of the clear zones produced by the plant extracts and compared to a standard curve obtained by a serial dilution of trypsin. Each dish contained a standard solution of trypsin that was used to plot a standard curve for each plate, thus the endopeptidase activity was expressed as units of trypsin equivalents.
Each analysis was performed in quadruplicate. […] In table 6 are shown the differences between treated and untreated cotton samples as percentages.

Structure (SMILES): CCCCOCCOCCOCc1cc2c(cc1CCC)OCO2 [PBO, 5-[[2-(2-Butoxyethoxy)ethoxy]methyl]-6-propyl-1,3-benzodioxole]
- Difference % Treated minus untreated (endopeptidase, RDA) (4 days after sowing): 9.15%
- Endopeptidase activity, cv. V2i Bt PBO (4 days after sowing): 5.90 U/mg protein
- Difference % Treated minus untreated (endopeptidase, RDA) (35 days after sowing): −5.35%
- Endopeptidase activity, cv. V2i Bt PBO (35 days after sowing): 8.04 U/mg protein
- Difference % Treated minus untreated (endopeptidase, RDA) (60 days after sowing): −39.31%
- Endopeptidase activity, cv. V2i Bt PBO (60 days after sowing): 4.07 U/mg protein
- Difference % Treated minus untreated (endopeptidase, RDA) (85 days after sowing): −16.42%
- Endopeptidase activity, cv. V2i Bt PBO (85 days after sowing): 4.14 U/mg protein
